Reference: patent US6852673B2, “Herbicidal pyridine compounds” (BASF Aktiengesellschaft, priority 1998, dated 2005)

What was measured:
Type in all cases: in vivo
[1] = system: Alopecurus myosuroides (ALOMY); experiment: Pre-emergence herbicidal evaluation, black grass
How it was run: (§1)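 Seeds planted in potting soil, then pots sprayed pre-emergence with aqueous acetone solution of test compound at about 0.0125 to 0.4 kg/ha. Kept under standard greenhouse care; injury rated 2 to 4 weeks after treatment.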

[2] = system: Echinochloa grus galli (ECHCG); experiment: Pre-emergence herbicidal evaluation, barnyard grass
Description: The pre-emergence herbicidal activity of the compounds of the present invention is exemplified by the following test in which the seeds of a variety of monocotyledonous and dicotyledonous plants are seperately mixed with potting soil and planted on top of approximately one inch of soil in separate pots. After planting, the pots are sprayed with the selected aqueous acetone solution containing test compound in sufficient quantity to provide the equivalent of about 0.0125 to 0.4 kg per hectare of test compound per pot. The treated pots are then placed on greenhouse benches, watered and cared for in accordance with conventional greenhouse procedures. From 2 to 4 weeks after treatment, the tests are terminated and each pot is examined and rated according to the rating system set forth below.

[3] = system: Setaria viridis (SETVI); experiment: Pre-emergence herbicidal evaluation, green foxtail
How it was run: as §1

[4] = system: Hordeum vulgare (HORVW); experiment: Post-emergence herbicidal evaluation, winter barley; details: rated 2 to 4 weeks after treatment
Protocol: (§2) [table] [table] […] These acetone solutions are diluted with water and the resulting formulations applied at dosage levels equivalent of about 0.03 to 0.4 kg per hectare of test compound per pot. After spraying the plants are placed on greenhouse benches and are cared for in the usual manner, commensurate with conventional greenhouse practices. From 2 to 4 weeks after treatment, the seedling plants are examined and rated according to the rating system provided above. A rating 0 indicates growth as untreated control, a rating 9 indicates death.

[5] = system: Oryza sativum (ORYSA); experiment: Post-emergence herbicidal evaluation, rice; details: rated 2 to 4 weeks after treatment
Protocol: as §2

[6] = system: Triticum aestivum (TRZAW); experiment: Post-emergence herbicidal evaluation, winter wheat; details: rated 2 to 4 weeks after treatment
Protocol: as §2

[7] = system: Zea mays (ZEAMX); experiment: Post-emergence herbicidal evaluation, maize; details: rated 2 to 4 weeks after treatment
Protocol: as §2

[8] = system: Abutilon theophrasti (ABUTH); experiment: Post-emergence herbicidal evaluation, velvetleaf; details: rated 2 to 4 weeks after treatment
Protocol: as §2

[9] = system: Ambrosia artemiisifolia (AMBEL); experiment: Post-emergence herbicidal evaluation, ragweed; details: rated 2 to 4 weeks after treatment
Protocol: as §2

[10] = system: Galium aparine (GALAP); experiment: Post-emergence herbicidal evaluation, cleaver; details: rated 2 to 4 weeks after treatment
Protocol: as §2

[11] = system: Lamium purpureum (LAMPU); experiment: Post-emergence herbicidal evaluation, purple deadnettle; details: rated 2 to 4 weeks after treatment
Protocol: as §2

[12] = system: Matricaria inodora (MATIN); experiment: Post-emergence herbicidal evaluation, mayweed; details: rated 2 to 4 weeks after treatment
Protocol: as §2

[13] = system: Solanum nigrum (SOLNI); experiment: Post-emergence herbicidal evaluation, black nightshade; details: rated 2 to 4 weeks after treatment
Protocol: as §2

[14] = system: Stellaria media (STEME); experiment: Post-emergence herbicidal evaluation, chickweed; details: rated 2 to 4 weeks after treatment
Protocol: as §2

[15] = system: Setaria viridis (SETVI); experiment: Post-emergence herbicidal evaluation, green foxtail; details: rated 2 to 4 weeks after treatment
Protocol: as §2

Question: What does the source list for `Cc1cc(OCC=C(Cl)Cl)nc(Oc2cc(C(F)(F)F)nn2C)c1` [Example 12]?
Answer: ALOMY rating ([1]; dose 0.1 kg/ha): 9 (9 - Complete kill); ALOMY rating ([1]; dose 0.4 kg/ha): 9 (9 - Complete kill); ECHCG rating ([2]; dose 0.013 kg/ha): 3 (3 - Moderate effect); ECHCG rating ([2]; dose 0.025 kg/ha): 5 (5 - Definite injury); ECHCG rating ([2]; dose 0.1 kg/ha): 8 (8 - Approaching complete kill); ECHCG rating ([2]; dose 0.4 kg/ha): 9 (9 - Complete kill); SETVI rating ([3]; dose 0.013 kg/ha): 5 (5 - Definite injury); SETVI rating ([3]; dose 0.025 kg/ha): 9 (9 - Complete kill); SETVI rating ([3]; dose 0.1 kg/ha): 9 (9 - Complete kill); SETVI rating ([3]; dose 0.4 kg/ha): 9 (9 - Complete kill); HORVW rating ([4]; dose 0.03 kg/ha): 3 (3 - Moderate effect); HORVW rating ([4]; dose 0.1 kg/ha): 5 (5 - Definite injury); HORVW rating ([4]; dose 0.4 kg/ha): 6 (6 - Herbicidal effect); ORYSA rating ([5]; dose 0.03 kg/ha): 2 (2 - Slight effect); ORYSA rating ([5]; dose 0.1 kg/ha): 3 (3 - Moderate effect); ORYSA rating ([5]; dose 0.4 kg/ha): 4 (4 - Injury); TRZAW rating ([6]; dose 0.03 kg/ha): 3 (3 - Moderate effect); TRZAW rating ([6]; dose 0.1 kg/ha): 3 (3 - Moderate effect); TRZAW rating ([6]; dose 0.4 kg/ha): 5 (5 - Definite injury); ZEAMX rating ([7]; dose 0.03 kg/ha): 2 (2 - Slight effect); ZEAMX rating ([7]; dose 0.1 kg/ha): 4 (4 - Injury); ZEAMX rating ([7]; dose 0.4 kg/ha): 6 (6 - Herbicidal effect); ABUTH rating ([8]; dose 0.03 kg/ha): 8 (8 - Approaching complete kill); ABUTH rating ([8]; dose 0.1 kg/ha): 9 (9 - Complete kill); ABUTH rating ([8]; dose 0.4 kg/ha): 9 (9 - Complete kill); AMBEL rating ([9]; dose 0.03 kg/ha): 5 (5 - Definite injury); AMBEL rating ([9]; dose 0.1 kg/ha): 6 (6 - Herbicidal effect); AMBEL rating ([9]; dose 0.4 kg/ha): 7 (7 - Good herbicidal effect); GALAP rating ([10]; dose 0.03 kg/ha): 7 (7 - Good herbicidal effect); GALAP rating ([10]; dose 0.1 kg/ha): 8 (8 - Approaching complete kill); GALAP rating ([10]; dose 0.4 kg/ha): 9 (9 - Complete kill); LAMPU rating ([11]; dose 0.03 kg/ha): 8 (8 - Approaching complete kill); LAMPU rating ([11]; dose 0.1 kg/ha): 8 (8 - Approaching complete kill); LAMPU rating ([11]; dose 0.4 kg/ha): 8 (8 - Approaching complete kill); MATIN rating ([12]; dose 0.03 kg/ha): 8 (8 - Approaching complete kill); MATIN rating ([12]; dose 0.1 kg/ha): 8 (8 - Approaching complete kill); MATIN rating ([12]; dose 0.4 kg/ha): 8 (8 - Approaching complete kill); SOLNI rating ([13]; dose 0.03 kg/ha): 8 (8 - Approaching complete kill); SOLNI rating ([13]; dose 0.1 kg/ha): 8 (8 - Approaching complete kill); SOLNI rating ([13]; dose 0.4 kg/ha): 8 (8 - Approaching complete kill); STEME rating ([14]; dose 0.03 kg/ha): 8 (8 - Approaching complete kill); STEME rating ([14]; dose 0.1 kg/ha): 8 (8 - Approaching complete kill); STEME rating ([14]; dose 0.4 kg/ha): 8 (8 - Approaching complete kill); SETVI rating ([15]; dose 0.03 kg/ha): 9 (9 - Complete kill); SETVI rating ([15]; dose 0.1 kg/ha): 9 (9 - Complete kill); SETVI rating ([15]; dose 0.4 kg/ha): 9 (9 - Complete kill)
